Values joined by “and” are separate entries in the source; they are usually repeats but may differ in a detail not shown here. Equal values may be shown once. Read-outs that look alike come from different tables or passages of the source.
Experiments:
Type in all cases: cell-based
[1] = cytotoxicity against L-6 rat skeletal myoblasts, resazurin
Protocol: Cytotoxicity against L-6 rat skeletal myoblasts: The L6 rat skeletal myoblast cell line used for cytotoxicity tests was obtained from the American Type Culture Collection (ATCC, Manassas, VA, USA) as ATCC-CRL-1458 [50]. The cells were cultivated in RPMI 1640 medium supplemented with 1% L-glutamine (200mM) and 10% fetal bovine serum. Cultures were maintained at 37 °C in an atmosphere of 5% CO2. Assays were performed in 96-well plates, each well containing RPMI 1640 medium supplemented with 1% L-glutamine (200 mM), 10% fetal bovine serum, and 2 × 10^3 L-6 cells/well. Plates were incubated at 37 °C under a 5% CO2 atmosphere for 24 h. Compounds were dissolved in DMSO (10 mg/mL). After 24 h, serial drug dilutions of eleven 3-fold dilution steps covering a range from 100 to 0.002 μg/mL were prepared, and the plates were incubated at 37 °C under 5% CO2 for 70 h. After 70 h incubation, 10 μL of resazurin solution (12.5 mg resazurin in 100 mL 1xPBS) was added per well, and plates were incubated for an additional 2 h. After that, the plates were read with a Spectramax Gemini EM microplate fluorometer (Molecular Devices, San Jose, CA, USA) using an excitation wavelength of 536 nm and an emission wavelength of 588 nm. Data were treated according to [44] (see below). Podophyllotoxin served as a positive control.
(§1) Bioassay data and statistical methods: In all cases, the readout data were plotted in Microsoft Excel. Half-maximal inhibitory concentrations (IC50 values) were calculated from the sigmoidal dose-response curves by linear regression. Two independent replicates of the assay were performed in all cases, and the results were expressed as arithmetic mean ± deviation from the mean.

[2] = tested on: Plasmodium falciparum (Pf) NF54 strain; assay: in vitro antiplasmodial assay, 3H-hypoxanthine incorporation, erythrocytic stages; settings: for SI (Pf): Selectivity index IC50(Cytotox)/IC50(Pf)
Protocol: Plasmodium falciparum (Pf): Tests were performed against erythrocytic stages of the drug-sensitive NF54 strain. The NF54 strain was obtained from F. Hoffmann-La Roche Limited (Basel, Switzerland). The strain NF54 was originally derived from a patient living near Schiphol Airport, Amsterdam, who had never left the Netherlands. The assay was performed using a 3H-hypoxanthine incorporation assay. Serial compound dilutions were prepared with the medium as indicated above and then added in 96-well plates to parasite cultures incubated in the medium previously described, consisting of RPMI 1640 supplemented with 0.5% ALBUMAX® II, 25 mM Hepes, 25 mM NaHCO3 (pH 7.3), 0.36 mM hypoxanthine, and 100 μg/mL neomycin. The plates were incubated in a humidified atmosphere at 37 °C, 4% CO2, 3% O2, and 93% N2. After 48 h, 0.25 μCi of 3H-hypoxanthine was added to each well. Incubation was continued under identical conditions for a further 24 h. The plates were then harvested using a Betaplate™ cell harvester (Wallac, Zurich, Switzerland). The red blood cells were transferred onto a glass fiber filter and washed with distilled H2O. After drying, filters were inserted into a plastic foil with 10 mL of scintillation fluid and counted with a Betaplate™ liquid scintillation counter (Wallac, Zurich, Switzerland). Data were treated according to [44] (see below). The positive control was chloroquine.
as §1

[3] = tested on: Trypanosoma brucei rhodesiense (Tbr) STIB900 strain; assay: in vitro antitrypanosomal assay, bloodstream forms, resazurin; settings: for SI(Tbr): Selectivity index IC50(Cytotox)/IC50(Tbr)
Protocol: Trypanosoma brucei rhodesiense (Tbr): The STIB900 strain is a derivative of the STIB704 strain isolated from a patient in Ifakara, Tanzania, in 1982 [43]. The bloodstream forms were cultivated as axenic culture in HMI-9 medium, supplemented with 15% heat-inactivated horse serum. Cultures were maintained at 37 °C in an atmosphere of 5% CO2. Test compounds were dissolved in DMSO (10 mg/mL), and serial drug dilutions of eleven 3-fold dilution steps covering a range from 100 to 0.002 μg/mL were prepared in a 96-well plate. Bloodstream-form of T. b rhodesiense strain STIB900 (2 × 10^3/well) was added into the wells. After 68 h incubation, 10 μL of resazurin solution (12.5 mg resazurin in 100 mL 1xPBS) was added per well, and plates were incubated for an additional 4 h. Subsequently, the plates were read with a Spectramax Gemini EM microplate fluorometer (Molecular Devices, San Jose, CA, USA) using an excitation wavelength of 536 nm and an emission wavelength of 588 nm. Data were treated according to [44] (see below). Melarsoprol was used as a positive control.
as §1

[4] = Plasmodium falciparum, NF54, pure compounds, tested as mono- or bis-trifluoroacetates where marked, read-out: IC50 Pf (converted)
[5] = Plasmodium falciparum, NF54, values in brackets, calculated with the molecular masses of the corresponding salts, read-out: IC50 Pf (converted)
[6] = Trypanosoma brucei, pure compounds, tested as mono- or bis-trifluoroacetates where marked, read-out: IC50 Tbr (converted)
[7] = Trypanosoma brucei, values in brackets, calculated with the molecular masses of the corresponding salts, read-out: IC50 Tbr (converted)
[8] = Plasmodium falciparum, NF54, read-out: IC50 Pf [µg/mL]
[9] = pure compounds, tested as mono- or bis-trifluoroacetates where marked

Row | SMILES | IC50 [2, 4] | IC50 [2, 5] | SI (Pf) ([2]; pure compounds) | SI(Tbr) ([3]; pure compounds) | IC50 [3, 6] | IC50 [3, 7] | IC50 at 70 h [1] | other results
1 | COc1cc([C@@H]2c3cc4c(cc3[C@H](O)[C@H]3COC(=O)[C@H]23)OCO4)cc(OC)c1OC [Podophyllotoxin, reference compound] |  |  |  |  |  |  |  | IC50 at 70 h ([1]; crude extracts and acid/base fractions, L6 cells, mean of two determinations ± deviation, read-out: IC50 Cytotox (converted)): 0.009 ± 0.001 µg/mL
2 | CN[C@@H]1CC[C@]2(C)[C@H]3CC[C@]4(C)[C@@H]([C@H](C)N(C)C)CC[C@H]4[C@@H]3CC[C@@]2(O)[C@@H]1OC(=O)c1ccccc1 [Compound 17, 5α-Hydroxy-3α,4α-diapachysanaximine A] | 1.6 ± 0.4 µg/mL | 2.3 µM | 7 | 3 | 3 ± 2 µg/mL | 5 µM | 12 µg/mL and 16 µM | 
3 | C[C@@H]([C@H]1CC[C@H]2[C@@H]3CC=C4C[C@@H](N(C)C)CC[C@]4(C)[C@H]3CC[C@]12C)N(C)C [Compound 13, Sarcodinine] | 4.6 ± 0.7 µg/mL | 7.7 µM | 2 | 4 | 2.6 ± 0.4 µg/mL | 4.3 µM | 11 µg/mL and 18 µM | 
4 | CC(=O)N(C)[C@@H](C)[C@H]1CC[C@H]2[C@@H]3CC[C@H]4C[C@@H](N(C)C)CC[C@]4(C)[C@H]3CC[C@]12C [Compound 14, Epipachysamine A] | 18 ± 1 µg/mL | 36 µM | 0.6 | 5 | 2.14 ± 0.05 µg/mL | 4.14 µM | 12 µg/mL and 23 µM | 
5 | CN[C@@H](C)[C@H]1CC[C@H]2[C@@H]3CC=C4C[C@@H](N(C)C)CC[C@]4(C)[C@H]3CC[C@]12C [Compound 2, 5,6-Dehydro-desacyl-epipachysamine A] | 0.898 ± 0.002 µg/mL | 1.53 µM | 21 | 10 | 1.9 ± 0.2 µg/mL | 3.2 µM | 19 µg/mL and 33 µM | 
6 | CN[C@@H]1CC[C@@]2(C)[C@@H](CC[C@@H]3[C@@H]2CC[C@]2(C)[C@@H]([C@H](C)N(C)C)CC[C@@H]32)C1 [Compound 8, Pachysamine A] | 1.82 ± 0.06 µg/mL | 3.09 µM | 6 | 13 | 0.8 ± 0.1 µg/mL | 1.3 µM | 10.4 µg/mL and 17.7 µM | 
7 | Nc1nc(N)nc(Nc2ccc([As]3SCC(CO)S3)cc2)n1 (centres unmarked) [Melarsoprol, reference compound] |  |  |  |  |  |  |  | IC50 ([3]; Trypanosoma brucei, read-out: IC50 Tbr): 0.007 ± 0.002 µg/mL; IC50 ([3]; Trypanosoma brucei, read-out: IC50 Tbr [µg/mL]): 0.007 ± 0.002 µg/mL
8 | CN[C@@H]1CC[C@]2(C)[C@H]3CC[C@]4(C)[C@@H]([C@H](C)N(C)C)CC[C@H]4[C@@H]3CC[C@H]2[C@@H]1OC(=O)C=C(C)C [Compound 10, Pachysandrine D] | 0.66 ± 0.13 µg/mL | 1.01 µM | 10 | 9 | 0.69 ± 0.03 µg/mL | 0.95 µM | 6.5 µg/mL and 9.5 µM | IC50 ([2]; values in brackets, calculated with the molecular masses of the corresponding salts, read-out: IC50 Pf (converted)): 0.97 µM; IC50 ([3]; values in brackets, calculated with the molecular masses of the corresponding salts, read-out: IC50 Tbr (converted)): 1.01 µM
9 | C[C@@H]([C@H]1CC[C@H]2[C@@H]3CC[C@H]4C[C@]5(CC[C@]4(C)[C@H]3CC[C@]12C)c1ccccc1C(=O)N5C)N(C)C [Compound 15, Spiropachysine] | 3 ± 1 µg/mL | 6 µM | 2 | 3 | 2.21 ± 0.04 µg/mL | 3.83 µM | 7.3 µg/mL and 12.7 µM | 
10 | C[C@@H]([C@H]1CC[C@H]2[C@@H]3CC[C@H]4[C@H](O)[C@@H](O)CC[C@]4(C)[C@H]3CC[C@]12C)N(C)C [Compound 11, Terminaline] | 3 ± 1 µg/mL | 7 µM | 8 | 5 | 5.9 ± 0.3 µg/mL | 12.4 µM | 28 µg/mL and 60 µM | 
11 | CC1=CC(=O)CC(C)(C)C1CCC(C)N(C)C (centres unmarked) [Compound 1] | 0.93 ± 0.07 µg/mL | 3.91 µM | 51 | 8 | 6.2 ± 0.9 µg/mL | 26.2 µM | 47 µg/mL and 198 µM | 
12 | CN[C@@H](C)[C@H]1CC[C@H]2[C@@H]3CC[C@H]4C[C@@H](N(C)C)CC[C@]4(C)[C@H]3CC[C@]12C [Compound 3, Desacyl-epipachysamine A] | 0.85 ± 0.03 µg/mL | 1.44 µM | 21 |  | 2 ± 0.2 µg/mL | 3.5 µM | 18 µg/mL and 30 µM | 
13 | CC(=O)[C@H]1CC[C@H]2[C@@H]3CCC4C[C@@H](N(C)C)CC[C@]4(C)[C@H]3CC[C@]12C (stereo partly drawn) [Compound 9, 3β-Dimethylamino-pregnane-20-one] |  |  | 0.8 | 3 | 2.21 ± 0.06 µg/mL | 4.8 µM |  | IC50 ([2]; Plasmodium falciparum, NF54, read-out: IC50 Pf (µM)): 18 µM; IC50 [2, 8]: 8 ± 2 µg/mL; IC50 at 70 h ([1]; L6 cells, values in brackets, calculated with the molecular masses of the corresponding salts, read-out: IC50 Cytotox (converted)): 14 µM; IC50 at 70 h ([1]; pure compounds, L6 cells, tested as mono- or bis-trifluoroacetates where marked, read-out: IC50 Cytotox (converted)): 6 ± 2 µg/mL
14 | C[C@@H]([C@H]1CC[C@H]2[C@@H]3CC[C@H]4C[C@@H](NC(=O)c5cccnc5)CC[C@]4(C)[C@H]3CC[C@]12C)N(C)C [Compound 4, Epipachysamine B] | 2.3 ± 0.2 µg/mL | 3.4 µM | 2 | 3 | 1.6 ± 0.5 µg/mL | 2.4 µM | 5.2 µg/mL and 7.7 µM | 
15 | CCN(CC)CCCC(C)Nc1ccnc2cc(Cl)ccc12 (centres unmarked) [Chloroquine, reference compound] |  |  |  |  |  |  |  | IC50 ([2]; Plasmodium falciparum, NF54, read-out: IC50 Pf): 0.002 µg/mL; IC50 [2, 8]: 0.002 µg/mL
16 | CN[C@@H](C)[C@H]1CC[C@H]2[C@@H]3CC[C@H]4C[C@@H]([N+](C)(C)CCl)CC[C@]4(C)[C@H]3CC[C@]12C [Compound 6, N3-chloromethyl-desacyl-epipachysamine A] | 0.25 ± 0.03 µg/mL | 0.39 µM | 346 | 74 | 1.2 ± 0.4 µg/mL | 1.9 µM | 87 µg/mL and 136 µM | 
17 | C[C@@H]([C@H]1CC[C@H]2[C@@H]3CC[C@H]4C[C@@H](N(C)C)CC[C@]4(C)[C@H]3CC[C@]12C)N(C)C [Compound 12, N-methyl-desacyl-epipachysamine A] | 2.5 ± 0.3 µg/mL | 4.1 µM | 3 | 3 | 2.3 ± 0.2 µg/mL | 3.9 µM | 7 µg/mL and 11 µM | 
18 | O=C(O)C(F)(F)F [Trifluoroacetate, reference compound] |  |  |  |  |  |  |  | IC50 Pf [2, 9]: >100 µg/mL; IC50 Tbr [3, 9]: >100 µg/mL
